# Reference: ChEMBL document CHEMBL1201862, “PubChem BioAssay data set” (2004)
# Calls of active or inactive are those of the source.
# What was measured:
# [1] = fluconazole-exposed Candida albicans growth modulators – fluorescence, retest, confirmation (AID 2467); type: functional, cell-based
# [2] = NIH-3T3 fibroblast cytotoxicity, dose response, cytotoxicity control, cell-based, fluorescence, Alamar Blue, secondary assay (AID 2327); type: functional;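 also: NIH-3T3 mouse fibroblasts cultured with fluconazole at 8 µg/mL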
# HeLa = assay: ATP-based viability loss in HeLa cells – cell-based, CellTiter-Glo luminescence, cherry-pick samples, cytotoxicity control for MITF activator project, dose response (AID 540259); type: functional; conditions: Homo sapiens
# [3] = decrease of insulin promoter-GFP reporter – imaging, high-content screening, mouse beta cells (AID 1628); type: functional; conditions: MIN6
# [4] = MIN6 cell viability loss – mouse insulinoma, cytotoxicity control, dose response (AID 2122); type: functional;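 also: confirmatory high-throughput counterscreen run to flag cytotoxic compounds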
# H4 = assay: Luminescence Cell-Based Dose Response HTS to Identify Activators of 5'UTR Stem-Loop Driven Prion Protein mRNA Translation in H4 Neuroglioblastoma Cells. [Related pubchem assays: 1829 (Project Summary), 1814 (Primary HTS)]; type: functional; conditions: Homo sapiens
# [5] = Luminescence Cell-Based Dose Confirmation HTS to Identify Activators of 5'UTR Stem-Loop Driven Alpha-Synuclein mRNA Translation in H4 Neuroglioblastoma Cells. [Related pubchem assays: 1829 (Project Summary), 1814 (Primary HTS)]; type: functional
# [6] = Luminescence Cell-Based Dose Response HTS to Identify Activators of Luciferase Translation or Activity in H4 […] Cells. [Related pubchem assays: 1829 (Project Summary), 1814 (Primary HTS)]; type: functional
# [7] = target: G-protein coupled receptor 55 (Homo sapiens, UniProt Q9Y2T6); assay: selective activators of receptor GPR55 – imaging, U2OS cells, beta-arrestin-GFP redistribution, primary screen (AID 1961); type: functional
# Prothrombin = Prothrombin (Bos taurus, UniProt P00735); assay: thrombin protease inhibitors – biochemical, fluorescence polarization, uHTS hits, dose response (AID 602369); type: functional
# [8] = target: 72 kDa type IV collagenase (Homo sapiens, UniProt P08253); assay: Dose Response validation of uHTS RPN11 inhibitor hits using a MMP-2 Fluorescence assay.; type: functional
# [9] = target: 26S proteasome non-ATPase regulatory subunit 14 (Homo sapiens, UniProt O00487); assay: inhibition of proteasome subunit RPN11 – biochemical, fluorescence polarization, uHTS hits, confirmation (AID 602368); type: functional
# Escherichia coli = assay: microbe, parasite or virus in culture
# [10] = target: T1, Heat shock factor protein 1 (Mus musculus, UniProt P38532); assay: decrease of HSF1-responsive luciferase luminescence – cell-based, NIH3T3, dose retest, confirmation (AID 2382); type: functional;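 also: NIH3T3 fibroblasts with HSF1-driven luciferase reporter stressed by proteasome inhibitor MG132; luminescence from HSF1-driven luciferase expression after 8 hours of MG132 stress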
# T1 sequence (P38532 whole entry): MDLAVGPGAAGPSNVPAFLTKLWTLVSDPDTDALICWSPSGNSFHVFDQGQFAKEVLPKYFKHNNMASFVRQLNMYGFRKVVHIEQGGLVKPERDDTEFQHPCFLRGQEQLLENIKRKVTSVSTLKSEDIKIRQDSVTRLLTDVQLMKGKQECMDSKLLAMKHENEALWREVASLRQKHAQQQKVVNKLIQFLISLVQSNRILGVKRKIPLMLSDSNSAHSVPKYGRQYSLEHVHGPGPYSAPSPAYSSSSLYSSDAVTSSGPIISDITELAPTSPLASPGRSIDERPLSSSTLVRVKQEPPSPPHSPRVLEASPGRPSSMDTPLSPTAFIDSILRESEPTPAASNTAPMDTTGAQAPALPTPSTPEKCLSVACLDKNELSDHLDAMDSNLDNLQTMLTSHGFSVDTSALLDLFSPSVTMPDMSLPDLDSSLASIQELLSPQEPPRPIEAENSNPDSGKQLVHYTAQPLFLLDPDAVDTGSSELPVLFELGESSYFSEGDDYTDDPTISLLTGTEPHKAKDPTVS
# Sequence of 26S proteasome non-ATPase regulatory subunit 14 (O00487 whole entry): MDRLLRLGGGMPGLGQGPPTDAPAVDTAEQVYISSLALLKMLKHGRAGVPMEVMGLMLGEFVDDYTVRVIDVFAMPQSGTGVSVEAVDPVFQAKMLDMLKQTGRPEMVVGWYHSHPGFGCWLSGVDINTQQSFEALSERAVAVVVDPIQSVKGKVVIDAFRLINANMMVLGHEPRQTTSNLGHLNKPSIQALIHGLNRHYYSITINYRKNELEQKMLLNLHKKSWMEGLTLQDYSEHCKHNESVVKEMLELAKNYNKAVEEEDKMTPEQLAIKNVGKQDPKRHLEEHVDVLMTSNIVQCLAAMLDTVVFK
# Sequence of 72 kDa type IV collagenase (P08253 whole entry): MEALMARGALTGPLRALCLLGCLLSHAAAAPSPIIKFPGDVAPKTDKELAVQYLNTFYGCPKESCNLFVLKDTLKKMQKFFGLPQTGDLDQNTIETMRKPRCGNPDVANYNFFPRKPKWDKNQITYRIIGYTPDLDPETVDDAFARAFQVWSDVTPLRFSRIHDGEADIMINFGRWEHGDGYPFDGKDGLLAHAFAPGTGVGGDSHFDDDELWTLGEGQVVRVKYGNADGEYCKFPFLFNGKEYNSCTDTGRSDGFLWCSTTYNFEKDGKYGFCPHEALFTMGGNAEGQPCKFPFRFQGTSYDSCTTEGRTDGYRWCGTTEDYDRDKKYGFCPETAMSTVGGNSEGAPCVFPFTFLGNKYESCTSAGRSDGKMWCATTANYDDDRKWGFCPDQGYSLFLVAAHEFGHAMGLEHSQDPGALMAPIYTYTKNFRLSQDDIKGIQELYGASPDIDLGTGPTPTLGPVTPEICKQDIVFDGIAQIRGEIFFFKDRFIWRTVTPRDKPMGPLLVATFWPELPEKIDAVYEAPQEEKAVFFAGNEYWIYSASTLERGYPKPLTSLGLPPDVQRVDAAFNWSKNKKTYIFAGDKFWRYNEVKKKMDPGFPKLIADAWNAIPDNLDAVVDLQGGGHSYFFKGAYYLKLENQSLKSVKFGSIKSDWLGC
# Sequence of G-protein coupled receptor 55 (Q9Y2T6 whole entry): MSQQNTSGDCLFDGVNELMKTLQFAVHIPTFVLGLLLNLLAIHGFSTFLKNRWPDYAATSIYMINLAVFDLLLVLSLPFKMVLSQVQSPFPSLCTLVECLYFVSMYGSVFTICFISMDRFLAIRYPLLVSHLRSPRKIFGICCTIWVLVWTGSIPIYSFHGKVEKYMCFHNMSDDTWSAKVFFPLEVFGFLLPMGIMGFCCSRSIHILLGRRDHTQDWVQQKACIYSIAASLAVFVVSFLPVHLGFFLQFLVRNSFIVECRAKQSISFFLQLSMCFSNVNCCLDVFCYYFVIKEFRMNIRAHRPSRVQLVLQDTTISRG
compound,measurement,setting,value
Cc1ccc(N2NC(C)(c3cccs3)N=C2S)cc1 (centres undefined),EC50,[1],1.27 µM (active)
same,EC50,[2],7.74 µM (active)
same,AC50,HeLa,> 350 µM (inactive)
NS(=O)(=O)c1ccc(CCNc2ncnc3sccc23)cc1,IC50,[3],2.01 µM (active)
same,IC50,[4],1.06 µM (active)
CC(C)C[C@@H](CSc1ccccc1)N1CCN(CC(C)C)CCC1=O,AC50,HeLa,147 µM (active)
same,EC50,H4,> 120 µM (not active)
same,EC50,[5],5.27 µM (active)
same,EC50,[6],41.4 µM (active)
same,EC50,[7],14.1 µM (inactive)
O=c1[nH]c(CSc2ncnc3sccc23)nc2cc(C(F)(F)F)ccc12,IC50,Prothrombin,60.8 µM (active)
same,IC50,[8],> 100 µM (inactive)
same,IC50,[9],32 µM (active)
CN1C(=O)/C(=C\C=C2/CCCN2C)N(C)C1=S,IC50,Prothrombin,42.7 µM (active)
same,IC50,[8],> 100 µM (inactive)
same,IC50,[9],23.3 µM (active)
O=C(c1ccc(Cl)cc1)C1CCCN(Cc2ccc3c(c2)OCCO3)C1 (centres undefined),AC50,Escherichia coli,190 µM (active)
same,EC50,[10],> 195 µM (not active)
N=C(NOC(=O)c1ccc2c(c1)OCO2)c1ccc(Cl)cc1,AC50,HeLa,69 µM (active)
